Structures are written as SMILES.

The melting point is the temperature, or range, at which the solid turns liquid.

Consider `CCCCCCCCCCC1CN(C)C(=O)N(O)C1` (stereo unspecified), for which the melting point was 63 to 64.5 °C.

The molecule `CCCCc1c(C)[nH]c(C(=O)OCC)c1OCC1CO1` (stereo unspecified) yielded a melting point of 125 to 127 °C.

As for `CC(C)C[C@H](NC(=O)OCc1ccccc1)C(=O)N[C@@H](Cc1ccccc1)C(=O)CSCCCl`, the melting point fell in the range of 77 to 80 °C.

Take `O=C(O)c1cc(-c2ccncc2)c[nH]c1=O`: the melting point is above 300 °C.

For `CSC1=C(c2ccc(O)cc2)C(=O)c2cc(O)cc(O)c21`, the melting point was 120 to 123 °C.

The molecule `CCOC(=O)C(C)NC(=O)c1cc(C)on1` (stereo unspecified) had a melting point of 65 to 66 °C.

`O=c1c2ccccc2cc2n1CCCCC2`: the melting point fell in the range of 99 to 101 °C.

`COc1ccc(-c2cc(C)cn2-c2ccc(S(N)(=O)=O)cc2)cc1F` yielded a melting point of 170 to 173 °C.

`CCN(CC)CCCNc1ncc2cc(-c3c(Cl)cccc3Cl)c(N=CN(C)C)nc2n1`: the melting point was 100 to 104 °C.

The molecule `CN1CCNC(=O)c2cccc(N)c21` displayed a melting point of 130 to 133 °C.

Molecule `CC(C)N(CCn1c(-c2ccc(O)cc2)cc2c1CCCC2)C(C)C` displayed a melting point of 112 to 114 °C.

Take `CC(C)(C)OC(=O)C[C@H](NC(=O)CNC(=O)CCc1ccc(C(=N)N)cc1)C(=O)NC1(C(=O)O)CCCC1`: the melting point lay within 136 to 138 °C.

Turning to `CN1CC=C(c2c[nH]c3ccc(O)cc23)CC1`, the melting point was 182 to 185 °C.

For `COC(=Cc1ccc(-c2cccc(N(C)C(=O)Nc3ccccc3)c2)cc1)C(=O)O`, the melting point came out at 223 °C.

For the molecule `CN1C(=O)CN(N=Cc2ccccc2)C(c2ccccc2)c2cc(Cl)ccc21` (stereo unspecified), the melting point was in the range of 157 to 158 °C.

For `Cc1ccc(CCc2n[nH]c3c2c(=O)n(-c2ccccc2)c2ncccc32)cc1`, the melting point lay in the range of 264 to 265 °C.

`Cc1cccc(C=NN2CCN(C3c4ccccc4C=C(C#N)c4ccccc43)CC2)n1` (stereo unspecified): the melting point was in the range of 200 to 202 °C.

In turn, `CN1CCC23c4c5ccc(OCCCCN)c4CC1C2C=CC(O)C3O5` (stereo unspecified) displayed a melting point of 140 to 142 °C.

The molecule `Cc1cccc2[nH]c3cc(O)ccc3c12` returned a melting point of 191 °C.

In turn, `Cc1cn2nc(SCc3ccccc3)nc2nc1Cl` displayed a melting point of 179 to 181 °C.

For the molecule `C=C(Cl)CC(C#N)(C#N)Cc1ccc(Cl)cc1`, the melting point was found to be 85.5 °C.

Consider `CC(Cn1ncnn1)n1nnc2cc3c(=O)n(CC(C)(C)O)nnc3cc2c1=O` (stereo unspecified), for which the melting point fell in the range of 128 to 130 °C.

For `COc1cc(OC)nc(Oc2cc([N+](=O)[O-])ccc2C(=O)O)n1`, the melting point lay within 93 to 96 °C.

On to `CSc1ccc(-c2cc(-n3ccc(C(F)(F)F)n3)c3ccccc3n2)cc1`, for which the melting point fell in the range of 116 to 118 °C.

`O=C(O)COc1ccc(-c2c3ccccc3cc3sc4ccccc4c23)cc1` yielded a melting point of 221 to 223 °C.

For `COc1ccc(-c2cc(COS(C)(=O)=O)c(=O)n(Cc3ccc(Cl)cc3)n2)cc1F`, the melting point lay within 156 to 157 °C.

Consider `CCCCN(CCCC)c1ccc(C=CC2=CC(=CC=CC3=C(C#N)C(=C(C#N)C#N)OC3(C)C(F)(F)F)CC(C)(C)C2)c(OC)c1` (stereo unspecified), for which the melting point lay within 196 to 201 °C.

`CC(C)C(=O)N(Cc1ccccc1)c1nnn(C)n1` showed a melting point of 65 °C.

For the molecule `NCC(=O)NCc1cccnc1`, the melting point lay within 87 to 88 °C.

In turn, `O=c1[nH]c2cc(Sc3cccc4cnccc34)c([N+](=O)[O-])cc2s1` displayed a melting point above 270 °C.

As for `CCN(CC)C(=S)SCc1ccccc1CSC(=S)N(CC)CC`, the melting point lay in the range of 78 to 80 °C.

In turn, `CC(C)(C)C1=NN(c2ccc(C(=O)O)cc2)C(c2ccc(Cl)cc2)C1` (stereo unspecified) returned a melting point of 208 °C.

On to `CC(C)CCCC(C)C1CCC2C3CCC4CC(=O)CC(C)C4(C)C3CCC12C` (stereo unspecified), for which the melting point lay in the range of 132 to 133 °C.

As for `COc1ccc(-c2cnc(N)c(Br)n2)cc1`, the melting point lay within 166 to 170 °C.

Turning to `CC(=O)n1ccc(-c2ccc(C(=O)N3Cc4cccn4Cc4ccccc43)cc2)n1`, the melting point was 192 to 194 °C.

For the molecule `C[C@@H](O)Cn1ncc2ccc(O)c(Br)c21`, the melting point was 134 to 136 °C.

`CCOC(=O)c1ncn2c1CN=C(c1ccccc1)c1cc(C#CC(C)(C)C)ccc1-2` showed a melting point of 155 to 156 °C.

As for `COc1cc(C=O)ccc1OCC1CO1` (stereo unspecified), the melting point was in the range of 56 to 58 °C.

On to `O=C1Nc2ccccc2C(=NO)C1=O`, for which the melting point is 241 to 242 °C.

The molecule `COc1ccc(Cn2c(=O)ccc3cnc(Cl)cc32)cc1Cl` had a melting point of 208 to 210 °C.

`O=[N+]([O-])c1ccc(N(CCO)CCO)cc1`: the melting point was in the range of 102 to 104 °C.

The molecule `OC1=NN(c2cc(-c3ccnc(Nc4cccc(Cl)c4)n3)ccn2)CC1` had a melting point of 222 to 226 °C.

With `CSCc1nn(CCC#N)c(O)c1C`, the melting point was 98 °C.

The molecule `Cc1cncn1CC#CCN1CCNC1=O` gave a melting point of 163 to 167 °C.

In turn, `CC(=O)NC(C)C1=NN(Cc2ccccc2)C(C)NC1=O` (stereo unspecified) displayed a melting point of 196 to 203 °C.

Regarding `CCCOc1ccc2c(c1)C(N(C)S(C)(=O)=O)C(O)C(C)(C)O2` (stereo unspecified), the melting point lay within 149 to 151 °C.

On to `Cc1c(-c2nnn[nH]2)oc2c(c1=O)CSc1ccccc1-2`, for which the melting point is 247 to 248 °C.

`O=C1Nc2cccc(Cl)c2C(=O)N2CCC[C@@H]12` registered a melting point of 264 to 266 °C.

The molecule `O=c1ccn2nc(-c3ccncc3)c(-c3ccc(F)cc3)c2[nH]1` showed a melting point of 298 to 299 °C.

Turning to `CS(=O)(=O)N(Cc1ccco1)CC(O)(Cn1cncn1)c1ccc(Cl)cc1Cl` (stereo unspecified), the melting point was in the range of 114 to 115 °C.

The molecule `CCCCCCN1CCN(Cc2ccc([N+](=O)[O-])cc2)C(=O)C1=O` showed a melting point of 115 to 117 °C.

Molecule `CC(=O)CN1CCc2c(c(=O)oc3cc(C(C)C)ccc23)C1` registered a melting point of 76 to 79 °C.

In turn, `CCCCCCCCCCCCCCCCOc1cc(OC)c(N)cc1OC` came in with a melting point of 61 °C.

The molecule `CCOC(=O)[C@H](C)N[P@@]1(=O)OC[C@H]2O[C@@H](n3cnc4c(OCC)nc(N)nc43)[C@](C)(F)[C@@H]2O1` displayed a melting point of 195 to 197 °C.

The molecule `COc1c(F)cc2[nH]c(C)c(CC(=O)O)c2c1F` yielded a melting point of 176 to 178 °C.

Regarding `Cc1cc(=O)c(-c2ccc(Oc3ccc(S(C)(=O)=O)cc3)cc2)c(C)o1`, the melting point was 170 to 173 °C.

As to `CCCCc1oc2ccccc2c1C(=O)NCc1ccc2c(Br)c(OCC#N)ccc2c1`, the melting point lay in the range of 154 to 157 °C.

For `O=C(/C=C/c1c(-c2ccc(F)cc2)nc2sccn12)c1ccc2ccccc2c1`, the melting point was 216 to 218 °C.

On to `CC1(C)NC(=O)N(c2ccc([N+](=O)[O-])c(Cl)c2)C1=O`, for which the melting point lay within 144 to 145 °C.

In turn, `Nc1nc(-c2ccccc2)c(-c2ccnc(Nc3ccccc3)n2)s1` displayed a melting point of 196 to 197 °C.

`COc1cc(OC)c(CN2CCc3cc(O)c(OC)cc3C2)c(OC)c1` had a melting point of 150 to 151 °C.

Molecule `O=c1oc2c(I)cc(I)cc2s1` came in with a melting point of 155 to 157 °C.

`Cc1c(N2C[C@@H]3CCCN[C@@H]3C2)c(F)cc2c(=O)c(C(=O)O)cn([C@@H]3C[C@@H]3F)c12` came in with a melting point of 244 to 245 °C.

The molecule `CN(C)CCCNC(=O)c1ccc(-c2nnc(CSCCOc3ccc(Cl)cc3Cl)o2)cc1` displayed a melting point of 140 to 141 °C.

For `COc1cc(OC)c2c(=O)cc(-c3ccc(C(F)(F)F)cc3)oc2c1C1CCN(C)C1CO` (stereo unspecified), the melting point lay within 114 to 115 °C.

As to `Fc1ccc(Nc2nc(N/N=C/c3cccc4ccccc34)nc(N3CCOCC3)n2)cc1`, the melting point worked out at 220 °C.

For `O=C(Nc1nccs1)c1nc(-c2ccc([N+](=O)[O-])cc2)[nH]c1-c1ccc(CO)cc1`, the melting point lay within 249 to 252 °C.

Molecule `COc1cc(C)c(C=O)cc1OCc1ccccc1` came in with a melting point of 107 to 109 °C.

The molecule `CC1=C(C(=O)OCCCO[N+](=O)[O-])C(c2cccc([N+](=O)[O-])c2)C(C(=O)OCCCO[N+](=O)[O-])=C(N)N1` (stereo unspecified) yielded a melting point of 145 to 146 °C.

Molecule `COCC(=O)Nc1nc(NC(=O)COC)nc(NC2CC2)n1` came in with a melting point of 175 to 180 °C.

Consider `CCCCCCCCOc1ccc(OCc2ccc(C(=O)OC3CCC(CCC)(CCC)OC3=O)cc2)cc1` (stereo unspecified), for which the melting point stood at 65 °C.

Consider `CCOC(=O)c1sc(=O)[nH]c1C(Cl)(Cl)Cl`, for which the melting point lay in the range of 109 to 110 °C.

Consider `CN(Cc1cccc(-c2ccc(CC3SC(=O)NC3=O)cc2)c1)C(=O)c1ccno1` (stereo unspecified), for which the melting point came to 160 °C.

Take `CNC(=O)C1=C(C)OC(C)=C(C(=O)NC)C1c1ccc(Cl)cc1`: the melting point was in the range of 256 to 259 °C.

In turn, `COc1ccc(OC)c(Nc2c(-c3ccc(S(C)(=O)=O)cc3)cnn(CC(F)(F)F)c2=O)c1` showed a melting point of 95 to 96 °C.

As for `O=C(Cc1ccccc1)c1ccc(OCC2CO2)cc1` (stereo unspecified), the melting point fell in the range of 81 to 82.4 °C.

Turning to `O=c1c2ccccc2oc2cc(OCC(O)CCl)cc(O)c12` (stereo unspecified), the melting point was 144 °C.

Molecule `CCSC1=NCC(=O)N1c1cc(Cl)ccc1OC` had a melting point of 113 to 115 °C.

`COC(=O)c1cc2cc(OC)c(OC)cc2nc1/N=C/N(C)C`: the melting point is 166 to 168 °C.

Consider `CC(C)=C(C[C@H](N)C(=O)O)C(=O)O`, for which the melting point lay in the range of 198 to 199 °C.

Consider `O=C(O)C(Oc1ccc(N2CCCCC2)cc1)c1cccc(Cl)c1` (stereo unspecified), for which the melting point lay in the range of 149 to 151 °C.

Regarding `CCCCC(CC)c1nc2cc(Cl)c(C#N)c(C)n2n1` (stereo unspecified), the melting point is 95 to 96 °C.

In turn, `O=C1C(=CO)Cc2c1cnn2Cc1ccccc1` gave a melting point of 171 to 172 °C.

`Cc1cc(C)nc(NC(=O)N(C)C)c1` yielded a melting point of 105 to 108 °C.

With `O=c1c2[nH]c(Cl)nc2n(CC2CC2)c(=O)n1CC1CC1`, the melting point is 220 °C.

`[N-]=[N+]=C(C(=O)CCc1ccccc1)C(=O)CCc1ccccc1` displayed a melting point of 62.6 to 64 °C.

Consider `Cc1cc(-c2nc3cccnn3c2-c2ccnc(NC(=O)NCC(C)O)c2)ccc1F` (stereo unspecified), for which the melting point is 139 to 140 °C.

`COc1c(F)c(Oc2cc(C(F)(F)F)nn2C)nc(Oc2cc(C(F)(F)F)nn2C)c1F` displayed a melting point of 83 °C.

On to `CCCCCC(=O)NC[C@@H]1CN2C(=O)C[C@H]2O1` (racemic), for which the melting point lay within 56 to 57 °C.

In turn, `COC(=O)C1=C(C)NC(C)=C(C(=O)OCCN2CC=C(c3ccccc3)CC2)C1c1cccc([N+](=O)[O-])c1` (stereo unspecified) returned a melting point of 115 to 116 °C.

Molecule `CN(C)Cc1ccc(CSCCN=CNC#N)o1` had a melting point of 74 to 76 °C.

(Values after a melting point compilation (Tetko et al.; mined from patent text by program, amines drawn as free bases though some values may be those of a salt).)
